Laboratory results published in ChEMBL document CHEMBL3885881, “DrugMatrix”.

Organism: Rattus norvegicus
Assay: DrugMatrix - Regimen: Daily Repeat
Format: toxicity, organism-based, Sprague-Dawley
Parameters: regimen Daily Repeat, gender Male, age 6-8 weeks
Details: in vivo, po, route oral GAVAGE, […]; for ABSOLUTE BASOPHIL / ABSOLUTE EOSINOPHIL / ABSOLUTE LYMPHOCYTE / ABSOLUTE MONOCYTE / ABSOLUTE SEGMENTED NEUTROPHIL / BASOPHIL / EOSINOPHIL / ERYTHROCYTE COUNT / HEMATOCRIT / HEMOGLOBIN / LEUKOCYTE COUNT / LYMPHOCYTE / MEAN CORPUSCULAR HEMOGLOBIN / MEAN CORPUSCULAR HEMOGLOBIN CONCENTRATION / MEAN CORPUSCULAR VOLUME / MONOCYTE / NEUTROPHIL / NUCLEATED RED BLOOD CELLS / PLATELET COUNT: tissue Blood
[1] = 0 mg/kg, 72 h, dose level Control, time 3 day
[2] = 0 mg/kg, 72 h, tissue Plasma, dose level Control, time 3 day
[3] = 0 mg/kg, 120 h, dose level Control, time 5 day
[4] = 0 mg/kg, 120 h, tissue Plasma, dose level Control, time 5 day
[5] = 0.3 mg/kg, 72 h, dose level Low, time 3 day
[6] = 0.3 mg/kg, 72 h, tissue Plasma, dose level Low, time 3 day

In the case of `C[C@]12CC[C@@H]3c4ccc(O)cc4CC[C@H]3[C@@H]1CC[C@@H]2O` [ESTRADIOL], the “ABSOLUTE BASOPHIL” value [1] is reported as 0 CELLS/uL, the “ABSOLUTE EOSINOPHIL” value [1] is reported as 41.83 CELLS/uL and the “ABSOLUTE LYMPHOCYTE” value [1] is reported as 8545.5 CELLS/uL. For the same compound, the “ABSOLUTE MONOCYTE” value [1] was 240 CELLS/uL, the “ABSOLUTE SEGMENTED NEUTROPHIL” value [1] was 906 CELLS/uL and the BASOPHIL [1] was 0%. The EOSINOPHIL [1] was 0.33%, the “ERYTHROCYTE COUNT” value [1] was 5.6 x10E6/uL and the HEMATOCRIT [1] was 35.4%. For the same compound, the HEMOGLOBIN [1] was 13.42 G/DL, the “LEUKOCYTE COUNT” value [1] was 9.73 x10E3/uL and the LYMPHOCYTE [1] was 87.83%. For the same compound, the “MEAN CORPUSCULAR HEMOGLOBIN” value [1] was 23.98 pg, the “MEAN CORPUSCULAR HEMOGLOBIN CONCENTRATION” value [1] was 37.92 G/DL and the “MEAN CORPUSCULAR VOLUME” value [1] was 63.3 fL. The MONOCYTE [1] was 2.5%, the NEUTROPHIL [1] was 9.33% and the “NUCLEATED RED BLOOD CELLS” value [1] was 0 /100WBC. For the same compound, the “PLATELET COUNT” value [1] was 1032 x10E3/uL, the “ALANINE AMINOTRANSFERASE” value [2] was 72.83 u/L and the ALBUMIN [2] was 4 G/DL. For the same compound, the “ALKALINE PHOSPHATASE” value [2] was 322.83 u/L, the “ASPARTATE AMINOTRANSFERASE” value [2] was 102.67 u/L and the “BLOOD UREA NITROGEN” value [2] was 12 mg/dL. The “CARBON DIOXIDE” value [2] was 34.33 mmol/L, the CHLORIDE [2] was 97.67 MEQ/L and the CHOLESTEROL [2] was 82.5 mg/dL. For the same compound, the “CREATINE PHOSPHOKINASE” value [2] was 410.33 u/L, the CREATININE [2] was 0.18 mg/dL and the GLUCOSE [2] was 164.5 mg/dL. The “LACTATE DEHYDROGENASE” value [2] was 119.5 u/L, the LIPASE [2] was 11.83 u/L and the PHOSPHORUS [2] was 9.52 mg/dL. For the same compound, the POTASSIUM [2] was 5.56 MEQ/L, the SODIUM [2] was 142.48 MEQ/L and the “TOTAL BILIRUBIN” value [2] was 0.18 mg/dL. For the same compound, the “TOTAL PROTEIN” value [2] was 5.77 G/DL, the “URIC ACID” value [2] was 0.48 mg/dL and the “ABSOLUTE BASOPHIL” value [3] was 0 CELLS/uL. The “ABSOLUTE EOSINOPHIL” value [3] was 0 CELLS/uL, the “ABSOLUTE LYMPHOCYTE” value [3] was 9065 CELLS/uL and the “ABSOLUTE MONOCYTE” value [3] was 341.33 CELLS/uL. For the same compound, the “ABSOLUTE SEGMENTED NEUTROPHIL” value [3] was 527 CELLS/uL, the BASOPHIL [3] was 0% and the EOSINOPHIL [3] was 0%. The “ERYTHROCYTE COUNT” value [3] was 5.25 x10E6/uL, the HEMATOCRIT [3] was 34.08% and the HEMOGLOBIN [3] was 13.5 G/DL. For the same compound, the “LEUKOCYTE COUNT” value [3] was 9.93 x10E3/uL, the LYMPHOCYTE [3] was 91.17% and the “MEAN CORPUSCULAR HEMOGLOBIN” value [3] was 25.7 pg. For the same compound, the “MEAN CORPUSCULAR HEMOGLOBIN CONCENTRATION” value [3] was 39.62 G/DL, the “MEAN CORPUSCULAR VOLUME” value [3] was 64.93 fL and the MONOCYTE [3] was 3.33%. The NEUTROPHIL [3] was 5.5%, the “NUCLEATED RED BLOOD CELLS” value [3] was 0 /100WBC and the “PLATELET COUNT” value [3] was 1077.5 x10E3/uL. The “ALANINE AMINOTRANSFERASE” value [4] was 57.83 u/L, the “ALKALINE PHOSPHATASE” value [4] was 319.17 u/L and the “ASPARTATE AMINOTRANSFERASE” value [4] was 83.33 u/L. The “BLOOD UREA NITROGEN” value [4] was 13.67 mg/dL, the “CARBON DIOXIDE” value [4] was 30.83 mmol/L and the CHLORIDE [4] was 98.33 MEQ/L. For the same compound, the CHOLESTEROL [4] was 64.83 mg/dL, the “CREATINE PHOSPHOKINASE” value [4] was 263.67 u/L and the CREATININE [4] was 0.2 mg/dL. For the same compound, the GLUCOSE [4] was 182.83 mg/dL, the “LACTATE DEHYDROGENASE” value [4] was 124 u/L and the LIPASE [4] was 10.5 u/L. For the same compound, the PHOSPHORUS [4] was 10 mg/dL, the POTASSIUM [4] was 5.78 MEQ/L and the SODIUM [4] was 142.48 MEQ/L. For the same compound, the “TOTAL BILIRUBIN” value [4] was 0.2 mg/dL, the “TOTAL PROTEIN” value [4] was 6 G/DL and the “URIC ACID” value [4] was 0.7 mg/dL. The “ABSOLUTE BASOPHIL” value [5] was 0 CELLS/uL, the “ABSOLUTE EOSINOPHIL” value [5] was 0 CELLS/uL and the “ABSOLUTE LYMPHOCYTE” value [5] was 8342 CELLS/uL. The “ABSOLUTE MONOCYTE” value [5] was 154.33 CELLS/uL, the “ABSOLUTE SEGMENTED NEUTROPHIL” value [5] was 637 CELLS/uL and the BASOPHIL [5] was 0%. For the same compound, the EOSINOPHIL [5] was 0%, the “ERYTHROCYTE COUNT” value [5] was 5.44 x10E6/uL and the HEMATOCRIT [5] was 33.83%. For the same compound, the HEMOGLOBIN [5] was 13.07 G/DL, the “LEUKOCYTE COUNT” value [5] was 9.13 x10E3/uL and the LYMPHOCYTE [5] was 91.67%. The “MEAN CORPUSCULAR HEMOGLOBIN” value [5] was 24.07 pg, the “MEAN CORPUSCULAR HEMOGLOBIN CONCENTRATION” value [5] was 38.63 G/DL and the “MEAN CORPUSCULAR VOLUME” value [5] was 62.23 fL. The MONOCYTE [5] was 1.67%, the NEUTROPHIL [5] was 6.67% and the “NUCLEATED RED BLOOD CELLS” value [5] was 0 /100WBC. For the same compound, the “PLATELET COUNT” value [5] was 824 x10E3/uL, the “ALANINE AMINOTRANSFERASE” value [6] was 57.33 u/L and the “ALKALINE PHOSPHATASE” value [6] was 430 u/L. For the same compound, the “ASPARTATE AMINOTRANSFERASE” value [6] was 82.67 u/L, the “BLOOD UREA NITROGEN” value [6] was 13.67 mg/dL and the “CARBON DIOXIDE” value [6] was 34 mmol/L. For the same compound, the CHLORIDE [6] was 97.67 MEQ/L, the CHOLESTEROL [6] was 68 mg/dL and the “CREATINE PHOSPHOKINASE” value [6] was 290.33 u/L. The CREATININE [6] was 0.16 mg/dL, the GLUCOSE [6] was 175 mg/dL and the “LACTATE DEHYDROGENASE” value [6] was 124 u/L. The LIPASE [6] was 11 u/L, the PHOSPHORUS [6] was 9.93 mg/dL and the POTASSIUM [6] was 5.76 MEQ/L. For the same compound, the SODIUM [6] was 142.13 MEQ/L, the “TOTAL BILIRUBIN” value [6] was 0.23 mg/dL and the “URIC ACID” value [6] was 0.37 mg/dL.
